Source: US6384061B1, “Hydantoin compounds and methods related thereto” (LG Chemical Ltd., priority 2000, dated 2002)

Tests used:
[1] = test system: intracellular Ras farnesyl transferase, Rat2 cell line; assay: Intracellular Ras farnesyl transferase inhibiting activity in transformed Rat2 cells (35S-methionine labelling, Y13-259 immunoprecipitation, SDS-PAGE); type: cell-based; conditions: Rattus norvegicus; transformed Rat2 fibroblast cell line; concentration inhibiting 50% of farnesyl binding of Ras protein; read-out: Ftase CIC50
Method: In the present experiment, Rat2 cell line which expresses C-Harvey-Ras protein having transforming activity and Rat2 cell line(Korean patent application No. 97-14409) which is transformed with fused protein of H-Ras substituted with polybasic lysine domain at C-terminus of K-Ras were used. The experiment was performed by the modified Declue's method(Declue. J. E. et al., Cancer Research, 1991. 51, 712). Hereinafter, the experimental method will be described in more detail.
3×10^5 cells of transformed Rat2 fibroblast cell line were sprayed on 60 mm cell cultivation dish and cultivated for 48 hours in a cell incubator at 37° C. and after 50% or more of density was reached, it was treated with a reagent. The compound according to the present invention dissolved in dimethylsulfoxide(DMSO) was used as the reagent. 1% of dimethylsulfoxide was used in both control and experimental groups. After 4 hours from the treatment of the reagent, methionine labeled with 150 μCi of radioactive isotope, ^35S per 1 ml of medium, was added and after cultivating for 20 hours, the cells were washed with physiological saline water. The cells were lysed using 1 ml of cool cell lysis buffer solution(50 mM of Sodium Herpiss buffer solution containing 5 mmol of magnesium chloride. 1 mmol of DTT, 1% NP 40, 1 mmol of EDTA, 1 mmol of PMSF, 2 μmol of leupeptin, 2 μmol of pepstatin A and 2 μmol of antipain) and the supernatant was obtained by high-velocity centrifugation of 12,000 g×5 minutes. The amount of the labeled radioisotope of the supernatent was measured and standardized to obtain a quantitative result in immunoprecipitation reaction and then. Y13-259, monoclonal antiboby specifically binding to Ras protein(Furth, M. E. et al., J. Virol, 1982, 43, 294) was added and reacted for 15 hours at 4° C. Protein A bound to goat anti-murine Immunoglobulin antibody-agarose suspension was added to the solution and reacted for 1 hour at 4° C. and then, to remove unspecific binding product, immunoprecipitates were washed with buffer solution(50 mM Tris chloride buffer solution containing 50 mmol of sodium chloride, 0.5% of sodium dioxycolate, 0.5% of NP 40 and 0.1% of SDS). The precipitates were boiled in reagent buffer solution for electrophoresis and then, electrophoresis was performed using 13.5% of SDS polyacrylamide gel. After electrophoresis, the gel was fixed and dried. Then, the gel was exposed to X-ray film, developed and printed. From the result of the experiment, intensities of band of protein with and without farnesyl of Ras protein were measured, and the concentration of reagent inhibiting 50% of farnesyl binding was defined as CIC50, an intracellular Ras farnesyl transferase inhibiting activity.

Ras farnesyl transferase = molecular target: T1, Ras farnesyl transferase (Homo sapiens, UniProt P49354+P49356); assay: Ras farnesyl transferase inhibiting activity (filter-binding, tritium-farnesylpyrophosphate, Ras-CVLS substrate); type: biochemical; conditions: recombinant Ras farnesyl transferase, 30 minutes at 37° C., read-out: Ftase IC50
T1 construct: made in house
Method: The enzyme reaction was performed in 50 μl of 50 mM Sodium HEPES buffer solution containing 25 mmol of potassium chloride. 25 mmol of magnesium chloride, 10 mmol of DTT and 50 μmol of zinc chloride. 1.5 μmol of Ras substrate protein, 0.15 μmol of tritium-farnesylpyrophosphate and 4.5 nmol of farnesyl transferase were used.
More specifically, in the initial step, farnesyl transferase was added to the above buffer solution, reaction was maintained for 30 minutes at 37° C. and then the reaction was stopped by adding 1 ml of ethanol solution containing 1M HCl. The formed precipitates were adsorbed to GF/B filter using Hopper harvestor(Hopper #225V) for filter-binding, washed with ethanol, and then radioactivity of the dried filter was measured using LKB β counter. Enzyme titer was measured in the unsaturated state of substrate where the concentrations of Ras substrate protein and farnesyl transferase have quantitative relationship. Enzyme inhibiting activity was measured using less than 5% of total reaction solution of the compound according to the present invention dissolved in dimethylsulfoxide(DMSO) solution as a reagent. Enzyme inhibiting activity was represented by percentage of the amount of the farnesyl incorporated with the reagent to that without the reagent.

[2] = molecular target: T2, Geranylgeranyl transferase (Bos taurus, UniProt P29702+Q5EAD5); assay: Geranylgeranyl transferase inhibiting activity (geranylgeranyl pyrophosphate, Ras-CVIL substrate); type: biochemical; conditions: geranylgeranyl transferase purified from bovine brain, read-out: GGtase IC50
T2 construct: Geranylgeranyl transferase was purified from bovine brain; from tissue; host or cells: bovine brain
Method: To evaluate the selective enzyme inhibiting activity of the compound according to the present invention, inhibiting activity on geranylgeranyl transferase was measured. Geranylgeranyl transferase was purified from bovine brain with the method modified from Schber's method(Schber et al., J. Biol. Chem. 1990, 265, 14701). and substantially the same experiment as that of farnesyl transferase was performed using geranylgeranyl pyrophosphate and Ras-CVIL substrate protein under the similar condition to farnesyl transferase reaction.

SMILES	IC50 (Ras farnesyl transferase) [µM]	IC50 [2] [µM]	IC50 [1] [µM]
CC1(c2cccc3ccccc23)NC(=O)N(Cc2cncn2Cc2ccc(C#N)cc2)C1=O (stereo not drawn) [Compound 59, 4-[5-(4-methyl-4-naphthalen-1-yl-2,5-dioxo-imidazolidin-1-ylmethyl)-imidazol-1-ylmethyl]-benzonitrile]	0.44	> 10	< 20
CC1(c2cccc3ccccc23)C(=O)N(CCCn2ccnc2)C(=O)N1Cc1cccc(C(F)(F)F)c1 (stereo not drawn) [Compound 22, 1-(3-trifluoromethyl-benzyl)-3-(3-imidazol-1-yl-propyl)-5-methyl-5-naphthalen-1-yl-imidazolidin-2,4-dione]	1.7	> 10	< 20
CC1(c2cccc3ccccc23)C(=O)N(CCCn2ccnc2)C(=O)N1Cc1ccc(C(=O)N2CCN(C(=O)OCc3ccccc3)CC2)cc1 (stereo not drawn) [Compound 43, 4-{4-[3-(3-imidazol-1-yl-propyl)-5-methyl-5-naphthalen-1-yl-2,4-dioxo-imidazolidin-1-ylmethyl]-benzoyl}-piperazine-1-carboxylic acid benzyl ester]	5	> 10	< 20
CC1(c2cccc3ccccc23)NC(=O)N(CCCc2cncn2Cc2ccc(C#N)cc2)C1=O (stereo not drawn) [Compound 45, 4-{5-[3-(4-methyl-4-naphthalen-1-yl-2,5-dioxo-imidazolidin-1-yl)-propyl]-imidazol-1-ylmethyl}benzonitrile]	5.5	> 10	< 20
CC1(c2cccc3ccccc23)C(=O)N(CCCn2ccnc2)C(=O)N1Cc1ccc(Oc2ccccc2)cc1 (stereo not drawn) [Compound 24, 3-(3-imidazol-1-yl-propyl)-5-methyl-5-naphthalen-1-yl-1-(4-phenoxy-benzyl)-imidazolidin-2,4-dione]	0.75	> 10	< 20
CC1(c2cccc3ccccc23)C(=O)N(CCCn2ccnc2)C(=O)N1Cc1cccnc1 (stereo not drawn) [Compound 18, 1-(3-pyridylmethyl)-3-(3-imidazol-1-yl-propyl)-5-methyl-5-naphthalen-1-yl-imidazolidin-2,4-dione]	0.6	> 10	< 20
CC1(c2cccc3ccccc23)C(=O)N(CCCn2ccnc2)C(=O)N1Cc1ccccc1CNS(C)(=O)=O (stereo not drawn) [Compound 35, N-{2-[3-(3-imidazol-1-yl-propyl)-5-methyl-5-naphthalen-1-yl-2,4-dioxo-imidazolidin-1-ylmethyl]-benzyl}-methanesulfonamide]	0.5	> 10	< 20
CC1(c2cccc3ccccc23)C(=O)N(CCCn2ccnc2)C(=O)N1C(=O)Nc1cccc(C#N)c1 (stereo not drawn) [Compound 66, 3-(3-imidazol-1-yl-propyl)-5-methyl-5-naphthalen-1-yl-2,4-dioxo-imidazolidin-1-carboxylic acid (3-cyano-phenyl)-amide]	0.2	> 10	< 20
CC1(c2cccc3ccccc23)C(=O)N(CCCn2ccnc2)C(=O)N1Cc1ccc(CNS(C)(=O)=O)cc1 (stereo not drawn) [Compound 37, N-{4-[3-(3-imidazol-1-yl-propyl)-5-methyl-5-naphthalen-1-yl-2,4-dioxo-imidazolidin-1-ylmethyl]-benzyl}-methanesulfonamide]	0.35	> 10	< 20
CC1(c2cccc3ccccc23)C(=O)N(CCCn2ccnc2)C(=O)N1Cc1cccc(C(=O)N2CCSCC2)c1 (stereo not drawn) [Compound 44, 3-(3-imidazol-1-yl-propyl)-1-[3-(thiomorpholine-4-carbonyl)-benzyl]-5-methyl-5-naphthalen-1-yl-imidazolidin-2,4-dione]	8	> 10	< 20

Compounds with a lower IC50 (Ras farnesyl transferase), results first:

IC50 (Ras farnesyl transferase) [µM]	IC50 [2] [µM]	SMILES	IC50 [1] [µM]
0.065	> 10	CC1(c2cccc3ccccc23)C(=O)N(CCCc2cncn2Cc2ccc(C#N)cc2)C(=O)N1Cc1ccccc1 (stereo not drawn) [Compound 53, 4-(5-{3-[3-benzyl-4-methyl-4-naphthalen-1-yl-2,5-dioxo-imidazolidin-1-yl]-propyl}-imidazol-1-ylmethyl)-benzonitrile]	< 20
0.08	> 10	CSc1ccc(CN2C(=O)N(CCCn3ccnc3)C(=O)C2(C)c2cccc3ccccc23)cc1C#N (stereo not drawn) [Compound 29, 5-[3-(3-imidazol-1-yl-propyl)-5-methyl-5-naphthalen-1-yl-2,4-dioxo-imidazolidin-1-ylmethyl]-2-methylsulfanyl-benzonitrile]	< 20
0.11	> 10	N#Cc1ccc(Cn2cncc2CN2C(=O)[C@H](CC(=O)N3CCOCC3)N(Cc3cccc4ccccc34)C2=O)cc1 [Compound 81, 4-{(5S)-[4-(2-morpholin-4-yl-2-oxo-ethyl)-3-naphthalen-1-ylmethyl-2,5-dioxo-imidazolidin-1-ylmethyl]-imidazol-1-ylmethyl}-benzonitrile]	< 20
0.15	> 10	CN(C)CCNC(=O)CC1C(=O)N(Cc2cncn2Cc2ccc(C#N)cc2)C(=O)N1Cc1cccc2ccccc12 (stereo not drawn) [Compound 82, 2-{1-[3-(4-cyano-benzyl)-3H-imidazol-4-ylmethyl]-3-naphthalen-1-ylmethyl-2,5-dioxo-imidazolidin-4-yl}-N-(2-(N,N-dimethylamino)-ethyl)-acetamide]	< 20
0.1	> 10	N#Cc1ccc(Cn2cncc2CN2C(=O)C(CC(=O)O)N(Cc3cccc4ccccc34)C2=O)cc1 (stereo not drawn) [Compound 78, {1-[3-(4-cyano-benzyl)-3H-imidazol-4-ylmethyl]-3-naphthalen-1-ylmethyl-2,5-dioxo-imidazolidin-4-yl}-acetic acid]	< 20
0.03	> 10	N#Cc1ccc(Cn2cncc2CN2C(=O)CN(Cc3cccc4ccccc34)C2=O)cc1 [Compound 75, 4-[5-(3-naphthalen-1-ylmethyl-2,5-dioxo-imidazolidin-1-ylmethyl)-imidazol-1-ylmethyl]-benzonitrile]	> 50
0.05	> 10	CC1(c2cccc3ccccc23)C(=O)N(Cc2cncn2Cc2ccc(C#N)cc2)C(=O)N1Cc1cccc(C#N)c1 (stereo not drawn) [Compound 63]	< 20
0.018	> 10	CCN1C(=O)N(CCCc2cncn2Cc2ccc(C#N)cc2)C(=O)C1(C)c1cccc2ccccc12 (stereo not drawn) [Compound 47, 4-{5-[3-(3-ethyl-4-methyl-4-naphthalen-1-yl-2,5-dioxo-imidazolidin-1-yl)-propyl]-imidazol-1-ylmethyl}benzonitrile]	< 20
0.055	> 10	CCCCN1C(=O)N(CCCc2cncn2Cc2ccc(C#N)cc2)C(=O)C1(C)c1cccc2ccccc12 (stereo not drawn) [Compound 49, 4-{5-[3-(3-butyl-4-methyl-4-naphthalen-1-yl-2,5-dioxo-imidazolidin-1-yl)-propyl]-imidazol-1-ylmethyl}benzonitrile]	< 20
